# Test system: Cucumber Green Mottle Mosaic Virus (CGMMV)
# Assay: Symptom expression of CGMMV in cucumbers treated 7 days before mechanical inoculation
# Type: in vivo
# Details: cucumber plants, 500 g product in 200 litres water sprayed to run-off 7 days before inoculation
# Method: The experiment tested the effect of boscalid (as Filan®) on the symptom expression of CGMMV in cucumbers. Cucumber plants were treated with Filan or water 7 days before mechanical inoculation with CGMMV. Filan® was applied at 500 g in 200 litres water. Sprays were applied as a fine spray to run-off.
# The experiment consisted of 5 plants per each treatment, with three replicates arranged randomly after fungicide treatment, but before inoculation. Plants were then inoculated in situ. Plants were mechanically inoculated at the 4-6 true leaf stage. Cucumber leaves showing symptoms and confirmed by CSL as infected with CGMMV were used as the source of inoculum. Several infected leaves were crushed in a plastic bag with a small amount of distilled water to extract the sap. This sap was then gently rubbed onto the second lowest green leaf of each plant in the experiment. Symptoms of CGMMV were assessed at intervals following inoculation.
structure (smiles),measurement,setting,value
"O=C(Nc1ccccc1-c1ccc(Cl)cc1)c1cccnc1Cl [Boscalid, boscalid]","Number of leaves with symtoms, 8 days after inoculation (Average)","8 days after inoculation, untreated 2.4",0.8
same,"Number of leaves with symtoms, 33 days after inoculation (Average)","33 days after inoculation, untreated 7.4",4.4

# Reference: US20100048403A1, “Method of inducing virus tolerance of plants” (BASF SE, priority 2007, published 2010)
